Converted amounts (≈) assume the structure as drawn.
Experiments:
P. aeruginosa PAO1 = format: cell-based, Pseudomonas aeruginosa; conditions: PAO1, 20 h
In short: (§1)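 Minimum inhibitory concentrations were recorded following 20 h of incubation with shaking at 35 °C (±2 °C), using ~5 × 10^5 CFU/mL in Mg^2+/Ca^2+-supplemented (4 mg/L each) Mueller-Hinton broth.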

[1] = test system: P. aeruginosa NMI 7197/19; format: cell-based, Pseudomonas aeruginosa; conditions: NMI 7197/19, 20 h
In short: as §1

A. baumannii NMI 3658/17 = format: cell-based, Acinetobacter baumannii; conditions: NMI 3658/17, 20 h
In short: as §1

A. baumannii ATCC 19606 = format: cell-based, Acinetobacter baumannii; conditions: ATCC 19606, 20 h
In short: as §1

E. coli NMI 3371/16 = format: cell-based, Escherichia coli; conditions: NMI 3371/16, 20 h
In short: as §1

E. coli NMI 3898/15 = format: cell-based, Escherichia coli; conditions: NMI 3898/15, 20 h
In short: as §1

E. coli ATCC 25922 = format: cell-based, Escherichia coli; conditions: ATCC 25922, 20 h
In short: as §1

[2] = Hydrophobicity by retention in analytical RP-HPLC (% MeCN at peak elution); format: physicochemical; conditions: for % MeCN at Elution, Aeris Peptide: Phenomenex Aeris Peptide XB-C18 column; for % MeCN at Elution, Aeris Peptide / % MeCN at Elution, Luna Omega / % MeCN at Elution, Supelco Discovery: gradient 0→60% B during 15 min; for % MeCN at Elution, Luna: Phenomenex Luna C18(2) column, RP-HPLC gradient 0→60% B during 15 min, relative hydrophobicity; for % MeCN at Elution, Luna Omega: Phenomenex Luna Omega Polar C18 column; for % MeCN at Elution, Supelco Discovery: Supelco Discovery BIO Wide pore C18 column
In short: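 Retention times measured on four C18 columns (Luna C18(2), Luna Omega Polar C18, Aeris Peptide XB-C18, Discovery BIO Wide pore) with MeCN–H2O/0.1% TFA, linear 0–60% B over 15 min, 0.8 mL/min, UV 220 nm. % MeCN at elution = 0.95(0.6Rt/15 min)+0.05(1−0.6Rt/15 min).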

[3] = test system: HepG2 cell line ATCC HB-8065; assay: Antiproliferative activity on HepG2 cell line (MTT assay); format: cell-based; conditions: inhibition of growth of HepG2 cells, 48 h, MTT; highest concentration tested 1280 µg/mL
[4] = as above; format: cell-based; conditions: HepG2 cells; at 1280 µg/mL, value in parenthesis; read-out: HepG2 cell viability at highest concentration tested

| SMILES | MIC, PA (P. aeruginosa PAO1) | MIC, P. aeruginosa NMI 7197/19 [1] | MIC, A. baumannii NMI 3658/17 (A. baumannii NMI 3658/17) | MIC against A. baumannii (A. baumannii ATCC 19606) | MIC, AB (A. baumannii ATCC 19606) | MIC, E. coli NMI 3371/16 (E. coli NMI 3371/16) | MIC, E. coli NMI 3898/15 (E. coli NMI 3898/15) | MIC, EC (E. coli ATCC 25922) | % MeCN at Elution, Aeris Peptide [2] | % MeCN at Elution, Luna [2] | % MeCN at Elution, Luna Omega [2] | % MeCN at Elution, Supelco Discovery [2] | HepG2 IC50 [3] | viability at 48 h [4] | MIC against E. coli (E. coli ATCC 25922) |
| --- | --- | --- | --- | --- | --- | --- | --- | --- | --- | --- | --- | --- | --- | --- | --- |
| NCCCC[C@H](NC(=O)CCN(Cc1ccc(F)cc1)C(=O)[C@H](CCCCN)NC(=O)CCN(Cc1ccc(F)cc1)C(=O)[C@H](CCCCN)NC(=O)CCOCCOCCOCCOCCOCCOCCNC(=O)CCN(Cc1ccc(F)cc1)C(=O)[C@H](CCCCN)NC(=O)CCN(Cc1ccc(F)cc1)C(=O)[C@H](CCCCN)NC(=O)CCN(Cc1ccc(F)cc1)C(=O)[C@@H](N)CCCCN)C(=O)N(CCC(N)=O)Cc1ccc(F)cc1 [Compound 10, H-[X]3-sPEG6-[X]3-NH2] | 16 µg/mL (≈ 7.28 µM) | >64 µg/mL | 4 µg/mL (≈ 1.82 µM) | 1.3 µM (≈ 2.86 µg/mL) | 4 µg/mL (≈ 1.82 µM) | 4 to 16 µg/mL | 8 to 32 µg/mL | 4 to 8 µg/mL | 40.3 % MeCN | 42.3 % MeCN | 42.8 % MeCN | 42.5 % MeCN | 800 µg/mL | 27% | – |
| NCCCC[C@H](NC(=O)CCN(Cc1ccc(F)cc1)C(=O)[C@H](CCCCN)NC(=O)COCCOCCNC(=O)CCN(Cc1ccc(F)cc1)C(=O)[C@H](CCCCN)NC(=O)CCN(Cc1ccc(F)cc1)C(=O)[C@H](CCCCN)NC(=O)COCCOCCNC(=O)CCN(Cc1ccc(F)cc1)C(=O)[C@H](CCCCN)NC(=O)CCN(Cc1ccc(F)cc1)C(=O)[C@@H](N)CCCCN)C(=O)N(CCC(N)=O)Cc1ccc(F)cc1 [Compound 16, H-[X]2-sPEG2-[X]2-sPEG2-[X]2-NH2] | 32 to 64 µg/mL | >64 µg/mL | 4 µg/mL (≈ 1.86 µM) | – | 8 µg/mL (≈ 3.72 µM) | 4 µg/mL (≈ 1.86 µM) | 8 µg/mL (≈ 3.72 µM) | 2 to 4 µg/mL | 39.4 % MeCN | 41.5 % MeCN | 41.9 % MeCN | 41.6 % MeCN | 687 µg/mL | 27% | 0.7 to 1.4 µM |
| NCCCC[C@H](NC(=O)CCN(Cc1ccc(F)cc1)C(=O)[C@H](CCCCN)NC(=O)CCN(Cc1ccc(F)cc1)C(=O)[C@H](CCCCN)NC(=O)CCOCCOCCOCCOCCN)C(=O)N(CCC(=O)NCCOCCOCCOCCOCCC(=O)N[C@@H](CCCCN)C(=O)N(CCC(=O)N[C@@H](CCCCN)C(=O)N(CCC(=O)N[C@@H](CCCCN)C(=O)N(CCC(=O)NCCOCCOCCOCCOCCC(N)=O)Cc1ccc(F)cc1)Cc1ccc(F)cc1)Cc1ccc(F)cc1)Cc1ccc(F)cc1 [Compound 14, H-sPEG4-[X]3-sPEG4-[X]3-sPEG4-NH2] | >64 µg/mL | >64 µg/mL | 32 µg/mL (≈ 12.3 µM) | – | 16 µg/mL (≈ 6.15 µM) | 16 µg/mL (≈ 6.15 µM) | 32 µg/mL (≈ 12.3 µM) | 16 µg/mL (≈ 6.15 µM) | 40.4 % MeCN | 42.4 % MeCN | 43.5 % MeCN | 42.5 % MeCN | 450 µg/mL | 44% | – |
| NCCCC[C@H](NC(=O)CCN(Cc1ccc(F)cc1)C(=O)[C@H](CCCCN)NC(=O)CCN(Cc1ccc(F)cc1)C(=O)[C@H](CCCCN)NC(=O)COCCOCCNC(=O)CCN(Cc1ccc(F)cc1)C(=O)[C@H](CCCCN)NC(=O)CCN(Cc1ccc(F)cc1)C(=O)[C@H](CCCCN)NC(=O)CCN(Cc1ccc(F)cc1)C(=O)[C@@H](N)CCCCN)C(=O)N(CCC(N)=O)Cc1ccc(F)cc1 [Compound 7, H-[X]3-sPEG2-[X]3-NH2] | 16 to 32 µg/mL | >64 µg/mL | 4 µg/mL (≈ 1.99 µM) | – | 4 µg/mL (≈ 1.99 µM) | 4 µg/mL (≈ 1.99 µM) | 8 µg/mL (≈ 3.99 µM) | 4 µg/mL (≈ 1.99 µM) | 39.4 % MeCN | 41.4 % MeCN | 41.8 % MeCN | 41.6 % MeCN | 619 µg/mL | 10% | – |
